Assay results from BindingDB's records for patent US20250313563 (The Broad Institute, 2025).
Several values for one entry are separate records, joined by “and”; a condition that tells them apart may be missing. Identical values can stand only once.

Legend:
[1] = molecular target: Glycogen synthase kinase-3 beta (Homo sapiens, UniProt P49841); assay: TR-FRET Assay
Procedure, shortened: (§1)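 TR-FRET readout: streptavidin-d2 (40 nM in added detection mix) plus Tb-anti-pSer641 Ab (2 nM in mix). Steps were 30 min compound preincubation, kinase reaction, then EDTA stop.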

[2] = molecular target: Glycogen synthase kinase-3 alpha (Homo sapiens, UniProt P49840); assay: TR-FRET Assay
Chain of Glycogen synthase kinase-3 alpha (P49840 whole entry): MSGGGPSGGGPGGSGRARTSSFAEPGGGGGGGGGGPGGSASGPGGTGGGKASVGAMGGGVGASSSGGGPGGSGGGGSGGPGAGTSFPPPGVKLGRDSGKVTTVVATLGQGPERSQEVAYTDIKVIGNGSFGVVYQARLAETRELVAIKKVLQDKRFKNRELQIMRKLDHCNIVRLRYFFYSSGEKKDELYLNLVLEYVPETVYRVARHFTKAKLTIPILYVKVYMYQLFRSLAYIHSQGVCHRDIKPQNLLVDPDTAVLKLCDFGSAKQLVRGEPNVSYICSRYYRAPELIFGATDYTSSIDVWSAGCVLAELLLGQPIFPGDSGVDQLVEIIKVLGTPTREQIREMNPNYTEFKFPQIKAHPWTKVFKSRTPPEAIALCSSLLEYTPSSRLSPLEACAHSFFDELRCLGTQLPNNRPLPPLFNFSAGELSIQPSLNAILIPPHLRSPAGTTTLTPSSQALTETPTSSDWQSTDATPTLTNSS
Procedure, shortened: as §1

Chain of Glycogen synthase kinase-3 beta (P49841 whole entry): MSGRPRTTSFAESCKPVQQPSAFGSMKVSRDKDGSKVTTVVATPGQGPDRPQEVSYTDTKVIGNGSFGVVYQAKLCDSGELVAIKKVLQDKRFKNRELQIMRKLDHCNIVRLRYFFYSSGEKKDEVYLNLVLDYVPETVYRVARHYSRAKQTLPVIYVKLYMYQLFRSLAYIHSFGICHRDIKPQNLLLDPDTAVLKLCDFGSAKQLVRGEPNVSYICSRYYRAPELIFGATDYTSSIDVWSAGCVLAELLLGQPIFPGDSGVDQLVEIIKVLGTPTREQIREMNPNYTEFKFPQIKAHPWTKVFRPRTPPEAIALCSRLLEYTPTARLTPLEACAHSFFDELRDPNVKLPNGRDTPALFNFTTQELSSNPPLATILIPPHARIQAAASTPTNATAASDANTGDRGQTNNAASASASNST

Row | IC50 [1] | IC50 [2] | Compound
1 | 1000 to 5000 nM | 100 to 1000 nM | CC[C@@]1(c2cccc(-c3cc(OC)ncc3F)c2)C2=CN=NC2NC2=C1C(=O)CC(C)(C)C2 (stereo partly drawn) [US20250313563, Compound 944032]
2 | 100 to 1000 nM | 100 to 1000 nM | Cc1nccc([C@H]2CC[C@@]3(CC2)C2=C(N=NC2)NC2=C3C(=O)CC(C)(C)C2)c1C [US20250313563, Compound 950477]
3 | > 5000 nM | > 5000 nM | Cn1cncc1-c1cccc([C@@]2(C)C3=C(CC(C)(C)CC3=O)NC3=C2C(CC(C)(C)C)N=N3)c1 (stereo partly drawn) [US20250313563, Compound 126015]
4 | < 100 nM and 1000 to 5000 nM | < 100 nM and 100 to 1000 nM | CC[C@@]1(c2cccc(-c3ccncc3C)c2)C2=CN=NC2NC2=C1C(=O)NC1(CCOCC1)C2 (stereo partly drawn) [US20250313563, Compound 948359]
5 | 100 to 1000 nM | < 100 nM | CCC1(c2cccc(-c3cccnc3)c2)C2=CN=NC2NC2=C1C(=O)CC(C)(C)C2 (stereo not drawn) [US20250313563, Compound 791272]
6 | 100 to 1000 nM | < 100 nM | CC[C@@]1(c2cccc(-c3ccnc(C)c3F)c2)C2=CN=NC2NC2=C1C(=O)NC(C)(C)C2 (stereo partly drawn) [US20250313563, Compound 948306]
7 | 100 to 1000 nM | 1000 to 5000 nM | CC(C)(C)CC1=C2C(N=N1)NC1=C(C(=O)CC(C)(C)C1)[C@]21CCc2ccc(F)cc21 (stereo partly drawn) [US20250313563, Compound 789504]
8 | 100 to 1000 nM | < 100 nM | CC[C@@]1(c2cccc(-c3ccnc(CCO)c3)c2)C2=CN=NC2NC2=C1C(=O)CC(C)(C)C2 (stereo partly drawn) [US20250313563, Compound 947810]
9 | 1000 to 5000 nM | 100 to 1000 nM | CC1(C)CC(=O)C2=C(C1)NC1=C(CN=N1)C21COC2(CN(C(=O)OC(C)(C)C)C2)C1 (stereo not drawn) [US20250313563, Compound 911083]
10 | 100 to 1000 nM | < 100 nM | CCC1(c2cccc(C(F)(F)F)c2)C2=CN=NC2NC2=C1C(=O)N(c1ccc(F)cc1)CC2 (stereo not drawn) [US20250313563, Compound 947748]
11 | < 100 nM and 100 to 1000 nM | < 100 nM | CCC1(c2cccc(-c3ccnn3C)c2)C2=C(CC(C)(C)CC2=O)NC2N=NC(C(F)(F)F)=C21 (stereo not drawn) [US20250313563, Compound 945531]
12 | 100 to 1000 nM | 100 to 1000 nM | CC1(C)CC(=O)C2=C(C1)NC1=C(CN=N1)[C@@]21CO[C@@H](C2CC2)C1 [US20250313563, Compound 913442]
13 | 100 to 1000 nM | < 100 nM | COc1ccccc1S(=O)(=O)N1CCCC2(CC1)C1=CN=NC1NC1=C2C(=O)CC(C)(C)C1 (stereo not drawn) [US20250313563, Compound 917142]
14 | < 100 nM | < 100 nM | CC[C@]1(c2cccc(S(=O)(=O)C3CC3)c2)C2=CN=NC2NC2=C1C(=O)NC(C)(C)C2 (stereo partly drawn) [US20250313563, Compound 947803]
15 | < 100 nM and 100 to 1000 nM | < 100 nM and 100 to 1000 nM | CC[C@@]1(c2ccccc2)C2=C(CC(C)(C)CC2=O)NC2N=NC(Br)=C21 (stereo partly drawn) [US20250313563, Compound 792340]
16 | 100 to 1000 nM | < 100 nM | CC1(C)CC(=O)C2=C(C1)NC1=C(CN=N1)C21COC2(CN(C(=O)C3CC(C)(C)C3)C2)C1 (stereo not drawn) [US20250313563, Compound 947282]
17 | 100 to 1000 nM | < 100 nM | CC1(C)CC(=O)C2=C(C1)NC1=C(CN=N1)C21CCN(CC(F)(F)F)CC1 [US20250313563, Compound 874528]
18 | 100 to 1000 nM | 100 to 1000 nM | CO[C@H]1CC[C@]2(CC1)C1=C(N=NC1)NC1=C2C(=O)CC(C)(C)C1 [US20250313563, Compound 884120]
19 | > 5000 nM | 100 to 1000 nM | CC[C@@]1(c2cccc(C(F)(F)F)c2)C2=CN=NC2NC2=C1C(=O)N(c1cnn(C)c1)CC2 (stereo partly drawn) [US20250313563, Compound 949271]
20 | > 5000 nM | 1000 to 5000 nM | CC[C@]1(c2cccc(-c3ccnc(C)c3)c2)C2=CN=NC2NC2=C1C(=O)[C@@H](F)C(C)(C)C2 (stereo partly drawn) [US20250313563, Compound 945486]

Row | IC50 [1] | IC50 [2] | Compound
21 | 1000 to 5000 nM | 100 to 1000 nM | CC1(C)CC(=O)C2=C(C1)NC1=C(CN=N1)[C@@]21CCCC(C)(C)C1 [US20250313563, Compound 883846]
22 | < 100 nM and 100 to 1000 nM | < 100 nM | CC[C@]1(c2cccc(Cl)c2)C2=C(CC(C)(C)CC2=O)NC2N=NC(C(F)(F)F)=C21 (stereo partly drawn) [US20250313563, Compound 801308]
23 | 100 to 1000 nM | 100 to 1000 nM | CCC1(c2cccc(CS(C)(=O)=O)c2)C2=CN=NC2NC2=C1C(=O)CC(C)(C)C2 (stereo not drawn) [US20250313563, Compound 945601]
24 | < 100 nM | < 100 nM | CC[C@]1(c2cccc(S(C)(=O)=O)c2)C2=C(CC(C)(C)NC2=O)NC2N=NC(C)=C21 (stereo partly drawn) [US20250313563, Compound 947811]
25 | 100 to 1000 nM | < 100 nM | CC[C@]1(c2cccc(-c3ccnc(C)c3)c2)C2=CN=NC2NC2=C1C(=O)N[C@@]1(CCCOC1)C2 (stereo partly drawn) [US20250313563, Compound 948144]
26 | 1000 to 5000 nM | 100 to 1000 nM | CC[C@@]1(c2cccc(-c3cnn(-c4ccccc4)c3F)c2)C2=CN=NC2NC2=C1C(=O)NC(C)(C)C2 (stereo partly drawn) [US20250313563, Compound 950821]
27 | > 5000 nM | > 5000 nM | CC1(C)CC(=O)C2=C(C1)NC1=C(CN=N1)C21CN(CC2CCOCC2)C1 [US20250313563, Compound 943545]
28 | 1000 to 5000 nM | 100 to 1000 nM | CC[C@]1(c2cccc(C(F)(F)F)c2)C2=CN=NC2NC2=C1C(=O)NCC2 (stereo partly drawn) [US20250313563, Compound 912622]
29 | 1000 to 5000 nM | 100 to 1000 nM | CC[C@@]1(c2cccc(-c3cnn(-c4ccccn4)c3)c2)C2=CN=NC2NC2=C1C(=O)NC(C)(C)C2 (stereo partly drawn) [US20250313563, Compound 952566]
30 | 100 to 1000 nM | < 100 nM | CC1(C)CCC2(CC1)C1=C(N=NC1)NC1=C2C(=O)CC(C)(C)C1 [US20250313563, Compound 884107]
31 | < 100 nM | < 100 nM | CC1(C)CC(=O)C2=C(C1)NC1=C(CN=N1)C21COC2(CN(C(=O)CC3CC3)C2)C1 (stereo not drawn) [US20250313563, Compound 947298]
32 | > 5000 nM | 1000 to 5000 nM | CCCS(=O)(=O)c1cccc([C@]2(CC)C3=CN=NC3NC3=C2C(=O)CC(C)(C)C3)c1 (stereo partly drawn) [US20250313563, Compound 929452]
33 | 100 to 1000 nM | < 100 nM | CCC1(c2cccc(NC(C)=O)c2)C2=CN=NC2NC2=C1C(=O)CC(C)(C)C2 (stereo not drawn) [US20250313563, Compound 877310]
34 | 1000 to 5000 nM | 100 to 1000 nM | CC[C@]1(c2cccc(S(=O)(=O)C(C)C)c2)C2=CN=NC2NC2=C1C(=O)CC(C)(C)C2 (stereo partly drawn) [US20250313563, Compound 913134]
35 | < 100 nM | < 100 nM | CCC1(c2cccc(-c3ccnn3CCC(C)C)c2)C2=CN=NC2NC2=C1C(=O)CC(C)(C)C2 (stereo not drawn) [US20250313563, Compound 929401]
36 | > 5000 nM | 1000 to 5000 nM | CC[C@@]1(c2cccc(Oc3ncccn3)c2)C2=C(CC(C)(C)NC2=O)NC2N=NC(Cl)=C21 (stereo partly drawn) [US20250313563, Compound 951605]
37 | 100 to 1000 nM | < 100 nM | CC[C@@]1(c2cccc(-c3ccnc(OC)c3Cl)c2)C2=CN=NC2NC2=C1C(=O)NC(C)(C)C2 (stereo partly drawn) [US20250313563, Compound 952754]
38 | > 5000 nM | > 5000 nM | CC1(C)CC(=O)C2=C(C1)NC1N=NC=C1C21CCCN(c2ccncc2)CC1 (stereo not drawn) [US20250313563, Compound 932633]
39 | 100 to 1000 nM | 100 to 1000 nM | CC1(C)CC(=O)C2=C(C1)NC1=C(CN=N1)[C@]21CCOC1 [US20250313563, Compound 877313]
